Measured values taken from ChEMBL document CHEMBL1153294, “The use of oxadiazole and triazole substituted naphthyridines as HIV-1 integrase inhibitors. Part 1: Establishing the pharmacophore” (Bioorg Med Chem Lett, 2009).
pEC50, pIC50: −log10 of the molar value.

What was measured:
[1] = target: Human immunodeficiency virus type 1 integrase (Human immunodeficiency virus 1, UniProt Q7ZJM1); test: Inhibition of HIV1 recombinant integrase strand transfer activity
[2] = tested on: Human immunodeficiency virus; test: Antiviral activity against HIV by pseudo-type HIV assay; format: functional, organism-based; conditions: Human immunodeficiency virus 1

Chain of Human immunodeficiency virus type 1 integrase (Q7ZJM1 whole entry): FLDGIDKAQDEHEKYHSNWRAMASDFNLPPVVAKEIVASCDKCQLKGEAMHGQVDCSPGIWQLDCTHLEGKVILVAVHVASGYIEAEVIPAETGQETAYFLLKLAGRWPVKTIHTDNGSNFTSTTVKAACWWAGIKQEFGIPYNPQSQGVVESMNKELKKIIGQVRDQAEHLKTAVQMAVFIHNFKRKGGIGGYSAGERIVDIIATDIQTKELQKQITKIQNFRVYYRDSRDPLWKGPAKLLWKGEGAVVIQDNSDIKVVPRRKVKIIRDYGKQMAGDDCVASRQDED

Row | SMILES | pIC50 [1] | pEC50 [2]
1 | O=C(NCc1ccc(F)cc1)c1ncc2cccnc2c1O | 7.92 | 7.12
2 | O=C(NCc1ccc(F)cc1)c1nc(N2CCCCS2(=O)=O)c2cccnc2c1O |  | 8.70
3 | O=S1(=O)CCCCN1c1nc(-c2nnc(Cc3ccc(F)cc3)[nH]2)c(O)c2ncccc12 | 7.96 | 6.62
4 | Cn1nc(Cc2ccc(F)cc2)nc1-c1ncc2cccnc2c1O | < 3.30 | 
5 | O=S1(=O)CCCCN1c1nc(-c2noc(Cc3ccc(F)cc3)n2)c(O)c2ncccc12 | < 4.00 | 
6 | O=S1(=O)CCCCN1c1nc(-c2nnc(Cc3ccc(F)cc3)o2)c(O)c2ncccc12 | 8.70 | 7.89
7 | Oc1c(-c2noc(Cc3ccc(F)cc3)n2)ncc2cccnc12 | 6.89 | 6.66
8 | Oc1c(-c2nnc(Cc3ccccc3)[nH]2)ncc2cccnc12 | 6.44 | 5.06
9 | Oc1c(-c2nnc(Cc3ccncc3)[nH]2)ncc2cccnc12 | 5.34 | < 4.46
10 | Oc1c(-c2nnc(Cc3cccc(Cl)c3)[nH]2)ncc2cccnc12 | 5.99 | 6.00
11 | COc1cccc(Cc2nnc(-c3ncc4cccnc4c3O)[nH]2)c1 | 5.55 | < 4.46
12 | Oc1c(-c2nnc(CCc3ccccc3)[nH]2)ncc2cccnc12 | 5.62 | < 4.70
13 | Oc1c(-c2nnc(Cc3ccc(F)cc3)o2)ncc2cccnc12 | 7.38 | 6.89
14 | Cn1nc(-c2ncc3cccnc3c2O)nc1Cc1ccc(F)cc1 | 5.10 | 
15 | Oc1c(-c2noc(-c3ccccc3)n2)ncc2cccnc12 | < 4.00 | 
16 | Oc1c(-c2noc(Cc3ccccc3)n2)ncc2cccnc12 | 6.02 | 5.72
17 | Oc1c(-c2nnc(Cc3ccc(F)cc3)[nH]2)ncc2cccnc12 | 6.89 | 6.49
18 | Oc1c(-c2nnc(Cc3cccnc3)[nH]2)ncc2cccnc12 | 5.46 | 5.19
19 | Oc1c(-c2nnc(Cc3ccc(Cl)cc3)[nH]2)ncc2cccnc12 | 6.19 | 6.00
20 | COc1ccc(Cc2nnc(-c3ncc4cccnc4c3O)[nH]2)cc1OC | 5.20 | < 4.46
21 | Oc1c(-c2nnc(Cc3ccccc3)o2)ncc2cccnc12 | 6.89 | 6.38
